Data from US11492338B2, “Furan surfactant compositions and methods” (SIRONIX RENEWABLES, INC., priority 2020, dated 2022).
Values after ≈ are worked out from the molar mass of the structure shown. Read-outs that look alike come from different tables or passages of the source. Marks after values point to notes of the source that are not given here.

Key:
[1] = Critical micelle concentration (CMC); assay type: physicochemical
[2] = Surface tension at critical micelle concentration; assay type: physicochemical
[3] = Calcium tolerance (Ca^2+ from CaCl2 until sustained precipitate); assay type: physicochemical; settings: ppm of Ca^2+ from CaCl2 where sustained precipitate is noted; for Ca^2+ Tolerance: Table 3; for Calcium Tolerance: Table 2
Protocol: (§1) Synthesized surfactants including the structure depicted in Experimental Structure 1, as well as the corresponding Na, Li, NH4, and Mg surfactants, were tested to determine surfactant properties. These included the time required for the surfactant solution to wet cotton fabric, the amount of foam the surfactant generates when agitated, the tolerance of the surfactant to calcium ions in solution as a measure of surfactant performance in hard water, and the temperature below which the surfactant forms a solid precipitate, known as the Krafft Point.

Krafft point = assay type: physicochemical
Protocol: as §1

[4] = Solubility in deionized water at 20° C.; assay type: physicochemical
[5] = water; common sodium surfactants; cited from earlier work
[6] = Stability tracking of oleo-furan sulfonic acid by liquid chromatography; assay type: physicochemical; settings: 8-week time course, room temperature and elevated temperature (42° C.)
Excerpt: Another advantage of surfactant embodiments disclosed herein is their inherent stability, particularly in the acid form prior to neutralization (oleo-furan sulfonic acids). As noted elsewhere herein, structural stability is an issue in the production of the common anionic surfactant SLES, causing occasional ring closure of the labile ethoxy chain during ethoxylation and sulfation step, which leads to the formation of a carcinogenic byproduct (e.g., 1,4-dioxane).
The calcium and magnesium monoanionic surfactants were both observed to have high foaming and foam stability, which is attractive for a number of applications including home cleaning, personal care, detergents, cosmetics, ore floatation and oil recovery. […] Stability of the oleo-furan surfactant, specifically the acid form oleo-furan sulfonic acid that is a precursor to the calcium and other cation surfactants, was measured over an eight week time course at room temperature and elevated temperatures, the results of which can be seen in FIG. 1.

Compound	CMC (critical micelle concentration) ([1]; Table 2) [ppm]	Surface Tension at critical micelle concentration ([2]; Table 2) [mN/m]	Calcium Tolerance [3]	Krafft Point (Krafft point; Table 2) [°C]	Solubility ([4]; Table 2) [mg/mL]	also measured
CCCCCCCCCCCC(=O)c1ccc(S(=O)(=O)[O-])o1.[Na+] [Na^+ OFS-12-1/0]						CMC (critical micelle concentration) ([1]; Table 3): 1735 ppm; Surface Tension at critical micelle concentration ([2]; Table 3): 44 mN/m; Ca^2+ Tolerance [3]: >50,000 ppm; Krafft Point (Krafft point; Table 3): <0 °C
CCCCCCCCCCCC(=O)c1cc(S(=O)(=O)O)c(C)o1 [Ca^2+]	300	33	>50,000 ppm	<0		Solubility ([4]; Table 2, read-out: Solubility): 350 mg/mL (≈ 1020 mM)
sodium dodecylbenzene sulfonate						Solubility [5]: 250 mg/mL
CCCCCCCCCCCC(=O)c1cc(S(=O)(=O)O)c(C)o1 [oleo-furan sulfonic acids]						degradation or byproduct formation by liquid chromatography [6]: negligible degradation or byproduct formation
CCCCCCCCCCCC(=O)c1cc(S(=O)(=O)[O-])c(C)o1.[Na+] [Na^+]	1480	42	>50,000 ppm	<0		CMC (critical micelle concentration) ([1]; Table 3): 1480 ppm; Surface Tension at critical micelle concentration ([2]; Table 3): 42 mN/m; Ca^2+ Tolerance [3]: >50,000 ppm; Krafft Point (Krafft point; Table 3): <0 °C
CCCCCCCCCCCC(=O)c1cc(S(=O)(=O)[O-])c(C)o1.CCCCCCCCCCCC(=O)c1cc(S(=O)(=O)[O-])c(C)o1.[Mg+2] [Mg^2+]			>50,000 ppm	20	10	Surface Tension ([2]; Table 2, recorded for saturated surfactant solution at 20° C.): 38* mN/m
CCCCCCCCCCCC(=O)c1cc(S(=O)(=O)O)c(C)o1.N [NH4^+]	3309	39	>50,000 ppm	<0	1000	
CCCCCCCCCCCC(=O)c1cc(S(=O)(=O)[O-])c(C)o1.[Li+] [Li^+]	1347	45	>50,000 ppm	<0	300	
CCCCCCCCCCCCOCCOCCOCCOS(=O)(=O)[O-].[Na+] [SLES, sodium lauryl ether sulfate, reference compound]	449	32	>50,000 ppm	<0	≥1000	
